Results: patent US8778941B2, “TRPM8 antagonists and their use in treatments” (AMGEN Inc., priority 2011, dated 2014)

What follows are compounds tested against T1, human TRPM8 (Homo sapiens, UniProt Q7Z2W7) (assay: Luminescence readout assay for measuring intracellular calcium (aequorin), hTRPM8 antagonism). Details: CHO cell line expressing human TRPM8 and aequorin; activation by icilin, L-menthol or cold buffer (table does not say which).
T1 construct: expressed in transfected cells; host or cells: Chinese hamster ovary (CHO) cells, T-REx tetracycline-inducible expression system (Invitrogen), co-transfected with pcDNA3.1 jellyfish aequorin
Assay type: cell-based

T1 sequence (Q7Z2W7 whole entry): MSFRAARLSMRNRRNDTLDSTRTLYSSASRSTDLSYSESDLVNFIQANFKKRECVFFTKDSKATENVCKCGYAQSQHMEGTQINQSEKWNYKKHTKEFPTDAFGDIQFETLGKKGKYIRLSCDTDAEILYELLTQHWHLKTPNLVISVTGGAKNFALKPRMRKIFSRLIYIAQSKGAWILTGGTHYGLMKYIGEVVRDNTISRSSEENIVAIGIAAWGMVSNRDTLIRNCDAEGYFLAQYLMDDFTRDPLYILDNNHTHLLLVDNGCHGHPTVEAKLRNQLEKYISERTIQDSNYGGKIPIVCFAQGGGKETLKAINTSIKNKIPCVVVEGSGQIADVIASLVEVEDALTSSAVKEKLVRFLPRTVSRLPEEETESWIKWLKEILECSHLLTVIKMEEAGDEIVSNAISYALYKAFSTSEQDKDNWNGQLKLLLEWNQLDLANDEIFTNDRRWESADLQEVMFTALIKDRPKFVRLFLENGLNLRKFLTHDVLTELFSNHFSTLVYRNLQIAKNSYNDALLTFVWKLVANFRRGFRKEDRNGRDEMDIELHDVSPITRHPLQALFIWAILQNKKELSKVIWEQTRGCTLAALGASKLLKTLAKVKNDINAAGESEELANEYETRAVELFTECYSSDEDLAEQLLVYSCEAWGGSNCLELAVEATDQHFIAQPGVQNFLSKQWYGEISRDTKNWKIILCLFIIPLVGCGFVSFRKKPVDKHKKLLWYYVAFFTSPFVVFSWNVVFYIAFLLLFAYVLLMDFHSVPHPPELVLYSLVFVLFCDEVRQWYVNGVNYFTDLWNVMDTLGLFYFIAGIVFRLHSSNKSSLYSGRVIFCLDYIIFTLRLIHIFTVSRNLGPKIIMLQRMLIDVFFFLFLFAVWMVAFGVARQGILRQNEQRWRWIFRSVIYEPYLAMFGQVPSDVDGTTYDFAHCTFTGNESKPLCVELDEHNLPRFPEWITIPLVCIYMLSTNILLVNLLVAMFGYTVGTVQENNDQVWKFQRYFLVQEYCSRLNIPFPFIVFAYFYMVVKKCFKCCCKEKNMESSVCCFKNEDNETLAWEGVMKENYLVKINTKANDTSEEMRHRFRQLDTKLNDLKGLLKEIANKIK

SMILES | IC50 [nM]
O=C(Nc1cccnc1)N[C@@H](c1ccc(OC(F)(F)F)cc1)c1ncccc1F [Example 15, (S)-1-((3-fluoropyridin-2-yl)(4-(trifluoro-methoxy)-phenyl)-methyl)-3-(pyridin-3-yl)-urea] | 15
N#Cc1cccc(NC(=O)N[C@@H](c2ccc(C(F)(F)F)cc2)c2ncccc2C(F)(F)F)c1 [Example 97, (S)-1-(3-cyanophenyl)-3-((4-(trifluoro-methyl)-phenyl)(3-(trifluoro-methyl)-pyridin-2-yl)-methyl)urea (2,2,2-trifluoro-acetate)] | 80
O=C(Nc1ccc2ncccc2c1)N[C@@H](c1ccc(C(F)(F)F)cc1)c1ncccc1C(F)(F)F [Example 58, (S)-1-(quinolin-6-yl)-3-((4-(trifluoro-methyl)-phenyl)(3-(trifluoro-methyl)-pyridin-2-yl)-methyl)urea] | 562
CC(C)(C)OC(=O)N[C@@H](c1ccc(C(F)(F)F)cc1)c1ccccn1 [Example 169, (S)-tert-Butyl(pyridin-2-yl(4-(trifluoromethyl)phenyl)methyl)-carbamate 2,2,2-trifluoroacetate] | 663
O=C(N[C@@H](c1ccc(OC(F)(F)F)c(F)c1)c1ncccc1F)OC1COC1 [Example 177, (S)-oxetan-3-yl ((3-fluoro-4-(trifluoromethoxy)phenyl)(3-fluoropyridin-2-yl)methyl)carbamate] | 517
COC(=O)[C@@H](NC(=O)N[C@@H](c1ccc(C(F)(F)F)cc1)c1ncccc1C(F)(F)F)C(C)C [Example 96, (S)-methyl 3-(methyl-2-(3-((S)-(4-(trifluoro-methyl)-phenyl)(3-(trifluoro-methyl)-pyridin-2-yl)-methyl)-ureido)-butanoate (2,2,2-trifluoro-acetate)] | 884
Cc1noc(-c2ccccc2)c1NC(=O)N[C@@H](c1ccc(C(F)(F)F)cc1)c1ncccc1C(F)(F)F [Example 69, (S)-1-(3-methyl-5-phenylisoxazol-4-yl)-3-((4-(trifluoro-methyl)-phenyl)(3-(trifluoro-methyl)-pyridin-2-yl)-methyl)urea (2,2,2-trifluoro-acetate)] | 777
O=C(Nc1ccc(-c2noc(=O)[nH]2)cc1)N[C@@H](c1ccc(C(F)(F)F)cc1)c1ncccc1C(F)(F)F [Example 148, (S)-1-(4-(5-Oxo-4,5-dihydro-1,2,4-oxadiazol-3-yl)phenyl)-3-((4-(trifluoromethyl)phenyl)(3-(trifluoromethyl)pyridin-2-yl)methyl)urea] | 1610
C[C@H](NC(=O)N[C@@H](c1ccc(C(F)(F)F)cc1)c1ncccc1C(F)(F)F)c1ccccc1 [Example 107, 1-((S)-1-phenylethyl)-3-((S)-(4-(trifluoro-methyl)-phenyl)(3-(trifluoro-methyl)-pyridin-2-yl)-methyl)urea (2,2,2-trifluoro-acetate)] | 123
O=C(NC1CCCOC1)N[C@@H](c1ccc(C(F)(F)F)cc1)c1ncccc1C(F)(F)F (stereo partly drawn) [Example 54, 1-(tetrahydro-2H-pyran-3-yl)-3-((S)-(4-(trifluoro-methyl)-phenyl)(3-(trifluoro-methyl)-pyridin-2-yl)-methyl)urea] | 397
COC(=O)[C@H](Cc1ccccc1)NC(=O)N[C@@H](c1ccc(C(F)(F)F)cc1)c1ncccc1C(F)(F)F [Example 136, (S)-methyl 3-phenyl-2-(3-((S)-(4-(trifluoro-methyl)-phenyl)(3-(trifluoro-methyl)-pyridin-2-yl)-methyl)-ureido)-propanoate (2,2,2-trifluoro-acetate)] | 4050
O=C(Nc1cccnc1)N[C@@H](c1ccc2ccccc2c1)c1ncccc1C(F)(F)F [Example 11] | 101
COc1cccc2cc([C@H](NC(=O)Nc3cccnc3)c3ncccc3C(F)(F)F)cnc12 [Example 16, (S)-1-((8-methoxy-quinolin-3-yl)-(3-(trifluoro-methyl)-pyridin-2-yl)-methyl)-3-(pyridin-3-yl)-urea] | 2260
COc1cccc([C@@H](C)NC(=O)N[C@@H](c2ccc(C(F)(F)F)cc2)c2ncccc2C(F)(F)F)c1 [Example 128, 1-((R)-1-(3-methoxy-phenyl)ethyl)-3-((S)-(4-(trifluoro-methyl)-phenyl)(3-(trifluoro-methyl)-pyridin-2-yl)-methyl)urea (2,2,2-trifluoro-acetate)] | 4060
O=C(Nc1cccnc1)N[C@@H](c1cccc(F)c1)c1ncccc1C(F)(F)F [Example 8, (S)-1-((3-fluorophenyl)-(3-(trifluoro-methyl)-pyridin-2-yl)-methyl)-3-(pyridin-3-yl)-urea] | 593
C=CCc1cccnc1[C@@H](NC(=O)Nc1cccnc1)c1ccc(C(F)(F)F)cc1 [Example 43, (S)-1-((3-allylpyridin-2-yl)(4-(trifluoromethyl)phenyl)-methyl)-3-(pyridin-3-yl)urea] | 22

SMILES | IC50 [nM]
CC(C)(C)NC(=S)N[C@@H](c1ccc(C(F)(F)F)cc1)c1ncccc1C(F)(F)F [Example 123, (S)-1-tert-butyl-3-((4-(trifluoro-methyl)-phenyl)(3-(trifluoro-methyl)-pyridin-2-yl)-methyl)-thiourea] | 190
CCOC(=O)c1cccc(NC(=O)N[C@@H](c2ccc(C(F)(F)F)cc2)c2ncccc2C(F)(F)F)c1 [Example 90, (S)-ethyl 3-(3-((4-(trifluoro-methyl)-phenyl)(3-(trifluoro-methyl)-pyridin-2-yl)-methyl)-ureido)-benzoate (2,2,2-trifluoro-acetate)] | 646
Cc1ccc(F)c(NC(=O)N[C@@H](c2ccc(C(F)(F)F)cc2)c2ncccc2C(F)(F)F)c1 [Example 146, (S)-1-(2-fluoro-5-methylphenyl)-3-((4-(trifluoro-methyl)-phenyl)(3-(trifluoro-methyl)-pyridin-2-yl)-methyl)urea (2,2,2-trifluoro-acetate)] | 3770
O=C(NCCCc1ccccc1)N[C@@H](c1ccc(C(F)(F)F)cc1)c1ncccc1C(F)(F)F [Example 34, (S)-1-(3-phenylpropyl)-3-((4-(trifluoro-methyl)-phenyl)(3-(trifluoro-methyl)-pyridin-2-yl)-methyl)urea (2,2,2-trifluoro-acetate)] | 127
CCc1cccc(C(C)C)c1NC(=O)N[C@@H](c1ccc(C(F)(F)F)cc1)c1ncccc1C(F)(F)F [Example 91, (S)-1-(2-ethyl-6-isopropylphenyl)-3-((4-(trifluoro-methyl)-phenyl)(3-(trifluoro-methyl)-pyridin-2-yl)-methyl)urea (2,2,2-trifluoro-acetate)] | 670
O=C(Nc1ccccc1)N[C@@H](c1ccc(C(F)(F)F)cc1)c1ncccc1C(F)(F)F [Example 31, (S)-1-phenyl-3-((4-(trifluoro-methyl)-phenyl)(3-(trifluoro-methyl)-pyridin-2-yl)-methyl)urea] | 81
CCc1cccc(C)c1NC(=O)N[C@@H](c1ccc(C(F)(F)F)cc1)c1ncccc1C(F)(F)F [Example 89, (S)-1-(2-ethyl-6-methylphenyl)-3-((4-(trifluoro-methyl)-phenyl)(3-(trifluoro-methyl)-pyridin-2-yl)-methyl)urea (2,2,2-trifluoro-acetate)] | 330
O=C(Nc1cccnc1)NC(c1ccc(F)c(C(F)(F)F)c1)c1ncccc1F (centres unmarked) [Example 22, 1-((4-fluoro-3-(trifluoro-methyl)-phenyl)(3-fluoropyridin-2-yl)methyl)-3-(pyridin-3-yl)urea (2,2,2-trifluoro-acetate)] | 201
CCCC[C@H](C)NC(=O)N[C@@H](c1ccc(C(F)(F)F)cc1)c1ncccc1C(F)(F)F [Example 83, 1-((S)-hexan-2-yl)-3-((S)-(4-(trifluoro-methyl)-phenyl)(3-(trifluoro-methyl)-pyridin-2-yl)-methyl)urea (2,2,2-trifluoro-acetate)] | 115
CCOC(=O)N[C@@H](c1ccc(C(F)(F)F)cc1)c1ncccc1C(F)(F)F [Example 170, (S)-Ethyl((4-(trifluoromethyl)phenyl)(3-(trifluoromethyl)-pyridin-2-yl)methyl)carbamate] | 147
O=C(Nc1cccnc1)N[C@@H](c1ccccc1)c1ncccc1C(F)(F)F [Example 20, (S)-1-(phenyl(3-(trifluoro-methyl)-pyridin-2-yl)-methyl)-3-(pyridin-3-yl)-urea] | 1310
O=C(NCC1CCS(=O)(=O)C1)N[C@@H](c1ccc(C(F)(F)F)cc1)c1ncccc1C(F)(F)F (stereo partly drawn) [Example 64, 1-((3- Sulfonylcyclopentyl)-methyl)-3-((S)-(4-(trifluoro-methyl)-phenyl)(3-(trifluoro-methyl)-pyridin-2-yl)-methyl)urea (2,2,2-trifluoro-acetate)] | 5650
Cc1cccc(C(C)C)c1NC(=O)N[C@@H](c1ccc(C(F)(F)F)cc1)c1ncccc1C(F)(F)F [Example 92, (S)-1-(2-isopropyl-6-methylphenyl)-3-((4-(trifluoro-methyl)-phenyl)(3-(trifluoro-methyl)-pyridin-2-yl)-methyl)urea (2,2,2-trifluoro-acetate)] | 713
O=C(Nc1cccnc1)N[C@@H](c1ccc(C(F)(F)F)cc1)c1ccccc1Br [Example 115, (S)-1-((2-bromophenyl) (4-(trifluoro-methyl)-phenyl)-methyl)-3-(pyridin-3-yl)-urea 2,2,2-trifluoro-acetate (2,2,2-trifluoro-acetate)] | 154
Cc1nc(-c2cccc(NC(=O)N[C@@H](c3ccc(C(F)(F)F)cc3)c3ncccc3C(F)(F)F)c2)no1 [Example 77, (S)-1-(3-(5-methyl-1,2,4-oxadiazol-3-yl)phenyl)-3-((4-(trifluoro-methyl)-phenyl)(3-(trifluoro-methyl)-pyridin-2-yl)-methyl)urea (2,2,2-trifluoro-acetate)] | 235
O=C(NCc1ccccc1)N[C@@H](c1ccc(C(F)(F)F)cc1)c1ncccc1C(F)(F)F [Example 109, (S)-1-benzyl-3-((4-(trifluoro-methyl)-phenyl)(3-(trifluoro-methyl)-pyridin-2-yl)-methyl)urea (2,2,2-trifluoro-acetate)] | 110
